From PMC9898036, “VIP152 is a selective CDK9 inhibitor with pre-clinical in vitro and in vivo efficacy in chronic lymphocytic leukemia” (Leukemia, 2022)
Read-outs that look alike come from different tables or passages of the source.

How the values were obtained:
Assay in all cases: DiscoverX KINOMEscan kinase profiling (468 assays)
Type in all cases: binding
human kinome [1] = target: human kinome (Homo sapiens, UniProt P42336, H1047Y); details: read-out: Percent Control
In short: (§1)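 VIP152 was run in DMSO, alongside a DMSO control. Readout was qPCR of DNA-tagged kinase still bound to bead-immobilized biotinylated kinase ligands after compound competition.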

human kinome [2] = target: human kinome (Homo sapiens, UniProt O14976); details: GAK; 100 nM; read-out: Percent Control
In short: as §1

human kinome [3] = target: human kinome (Homo sapiens, UniProt Q00537); details: read-out: Percent Control
In short: as §1

human kinome [4] = target: human kinome (Homo sapiens, UniProt Q16816); details: read-out: Percent Control
In short: as §1

human kinome [5] = target: human kinome (Homo sapiens, UniProt P06241); details: FYN; 100 nM; read-out: Percent Control
In short: as §1

human kinome [6] = target: human kinome (Homo sapiens, UniProt P22694); details: read-out: Percent Control
In short: as §1

human kinome [7] = target: human kinome (Homo sapiens, UniProt P37023); details: ACVRL1; 100 nM; read-out: Percent Control
In short: as §1

human kinome [8] = target: human kinome (Homo sapiens, UniProt P29317); details: EPHA2; 100 nM; read-out: Percent Control
In short: as §1

human kinome [9] = target: human kinome (Homo sapiens, UniProt P17612); details: read-out: Percent Control
In short: as §1

human kinome [10] = target: human kinome (Homo sapiens, UniProt Q8IVH8); details: MAP4K3; 100 nM; read-out: Percent Control
In short: as §1

human kinome [11] = target: human kinome (Homo sapiens, UniProt P21127); details: CDC2L1 (Entrez CDK11B); 100 nM; read-out: Percent Control
In short: as §1

human kinome [12] = target: human kinome (Homo sapiens, UniProt Q13976); details: read-out: Percent Control
In short: as §1

human kinome [13] = target: human kinome (Homo sapiens, UniProt Q07002); details: read-out: Percent Control
In short: as §1

human kinome [14] = target: human kinome (Homo sapiens, UniProt P78362); details: kinase SRPK2 (Entrez SRPK2); compound concentration 1000 nM; read-out: Percent Control
In short: as §1

human kinome [15] = target: human kinome (Homo sapiens, UniProt Q13237); details: read-out: Percent Control
In short: as §1

human kinome [16] = target: human kinome (Homo sapiens, UniProt Q9BX84); details: kinase TRPM6 (Entrez TRPM6); compound concentration 1000 nM; read-out: Percent Control
In short: as §1

human kinome [17] = target: human kinome (Homo sapiens, UniProt P08581, M1250T); details: MET(M1250T); 100 nM; read-out: Percent Control
In short: as §1

human kinome [18] = target: human kinome (Homo sapiens, UniProt P00533, L858R); details: EGFR(L858R); 100 nM; read-out: Percent Control
In short: as §1

human kinome [19] = target: human kinome (Homo sapiens, UniProt Q9UEW8); details: kinase STK39 (Entrez STK39); compound concentration 1000 nM; read-out: Percent Control
In short: as §1

human kinome [20] = target: human kinome (Homo sapiens, UniProt Q9Y4K4); details: MAP4K5; 100 nM; read-out: Percent Control
In short: as §1

human kinome [21] = target: human kinome (Homo sapiens, UniProt P54762); details: EPHB1; 100 nM; read-out: Percent Control
In short: as §1

human kinome [22] = target: human kinome (Homo sapiens, UniProt Q15349); details: compound concentration 1000 nM, read-out: Percent Control
In short: as §1

human kinome [23] = target: human kinome (Homo sapiens, UniProt Q9HBY8); details: kinase SGK2 (Entrez SGK2); compound concentration 1000 nM; read-out: Percent Control
In short: as §1

human kinome [24] = target: human kinome (Homo sapiens, UniProt Q15139); details: read-out: Percent Control
In short: as §1

human kinome [25] = target: human kinome (Homo sapiens, UniProt Q16566); details: CAMK4; 100 nM; read-out: Percent Control
In short: as §1

human kinome [26] = target: human kinome (Homo sapiens, UniProt Q9UQM7); details: CAMK2A; 100 nM; read-out: Percent Control
In short: as §1

human kinome [27] = target: human kinome (Homo sapiens, UniProt Q96J92); details: kinase WNK4 (Entrez WNK4); compound concentration 1000 nM; read-out: Percent Control
In short: as §1

human kinome [28] = target: human kinome (Homo sapiens, UniProt P11802); details: 100 nM, read-out: Percent Control
In short: as §1

human kinome [29] = target: human kinome (Homo sapiens, UniProt Q12851); details: MAP4K2; 100 nM; read-out: Percent Control
In short: as §1

Chain of human kinome (Homo sapiens, UniProt P11802) (P11802 whole entry): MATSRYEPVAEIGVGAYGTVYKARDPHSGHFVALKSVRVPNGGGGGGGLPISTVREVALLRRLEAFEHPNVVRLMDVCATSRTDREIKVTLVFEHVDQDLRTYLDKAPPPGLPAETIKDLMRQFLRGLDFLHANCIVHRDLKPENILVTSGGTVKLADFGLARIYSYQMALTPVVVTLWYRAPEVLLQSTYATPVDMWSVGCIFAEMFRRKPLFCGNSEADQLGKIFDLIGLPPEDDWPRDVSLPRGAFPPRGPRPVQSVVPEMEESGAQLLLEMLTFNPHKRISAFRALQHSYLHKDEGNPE
Chain of human kinome (Homo sapiens, UniProt Q07002) (Q07002 whole entry): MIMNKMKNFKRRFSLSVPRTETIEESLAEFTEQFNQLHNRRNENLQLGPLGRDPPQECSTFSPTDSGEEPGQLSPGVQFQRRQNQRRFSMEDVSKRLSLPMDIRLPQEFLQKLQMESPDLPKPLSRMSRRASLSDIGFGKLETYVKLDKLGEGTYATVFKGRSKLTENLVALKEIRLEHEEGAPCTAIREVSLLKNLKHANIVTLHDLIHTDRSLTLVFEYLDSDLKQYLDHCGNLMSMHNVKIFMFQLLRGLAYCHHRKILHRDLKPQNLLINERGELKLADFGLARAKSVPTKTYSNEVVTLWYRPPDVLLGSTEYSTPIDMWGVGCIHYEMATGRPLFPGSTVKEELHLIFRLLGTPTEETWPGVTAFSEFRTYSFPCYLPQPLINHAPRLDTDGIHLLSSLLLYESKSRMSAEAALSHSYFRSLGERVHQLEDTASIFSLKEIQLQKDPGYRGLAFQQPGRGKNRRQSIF
Chain of human kinome (Homo sapiens, UniProt P42336, H1047Y) (P42336 whole entry H1047Y): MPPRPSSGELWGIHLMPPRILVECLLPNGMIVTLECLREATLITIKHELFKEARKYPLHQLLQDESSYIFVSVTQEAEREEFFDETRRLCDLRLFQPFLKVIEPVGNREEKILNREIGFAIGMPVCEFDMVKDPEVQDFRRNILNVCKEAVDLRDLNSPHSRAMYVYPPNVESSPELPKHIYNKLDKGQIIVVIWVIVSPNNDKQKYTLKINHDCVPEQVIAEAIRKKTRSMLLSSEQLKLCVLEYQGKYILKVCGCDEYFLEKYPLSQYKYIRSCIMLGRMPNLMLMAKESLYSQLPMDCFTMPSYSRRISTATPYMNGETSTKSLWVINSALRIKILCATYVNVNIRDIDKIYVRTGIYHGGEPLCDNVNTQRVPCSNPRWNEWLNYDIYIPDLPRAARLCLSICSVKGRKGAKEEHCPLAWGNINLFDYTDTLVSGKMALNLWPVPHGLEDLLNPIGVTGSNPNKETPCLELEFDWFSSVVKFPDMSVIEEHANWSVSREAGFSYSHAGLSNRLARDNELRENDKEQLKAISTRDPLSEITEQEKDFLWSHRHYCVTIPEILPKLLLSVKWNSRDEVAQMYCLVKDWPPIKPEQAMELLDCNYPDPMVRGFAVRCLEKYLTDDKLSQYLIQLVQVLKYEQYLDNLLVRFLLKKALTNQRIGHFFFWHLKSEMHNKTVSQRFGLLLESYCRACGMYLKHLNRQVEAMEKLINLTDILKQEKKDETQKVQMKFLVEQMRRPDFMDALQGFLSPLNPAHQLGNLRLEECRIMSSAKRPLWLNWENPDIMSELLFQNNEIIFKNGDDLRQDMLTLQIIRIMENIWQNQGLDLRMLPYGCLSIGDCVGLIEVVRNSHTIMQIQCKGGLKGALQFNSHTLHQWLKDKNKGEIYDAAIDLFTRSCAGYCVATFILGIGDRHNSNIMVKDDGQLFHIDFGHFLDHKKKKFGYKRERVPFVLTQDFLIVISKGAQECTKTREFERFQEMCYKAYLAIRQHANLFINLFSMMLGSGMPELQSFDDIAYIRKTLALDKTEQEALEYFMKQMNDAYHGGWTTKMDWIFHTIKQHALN
Chain of human kinome (Homo sapiens, UniProt Q13976) (Q13976 whole entry): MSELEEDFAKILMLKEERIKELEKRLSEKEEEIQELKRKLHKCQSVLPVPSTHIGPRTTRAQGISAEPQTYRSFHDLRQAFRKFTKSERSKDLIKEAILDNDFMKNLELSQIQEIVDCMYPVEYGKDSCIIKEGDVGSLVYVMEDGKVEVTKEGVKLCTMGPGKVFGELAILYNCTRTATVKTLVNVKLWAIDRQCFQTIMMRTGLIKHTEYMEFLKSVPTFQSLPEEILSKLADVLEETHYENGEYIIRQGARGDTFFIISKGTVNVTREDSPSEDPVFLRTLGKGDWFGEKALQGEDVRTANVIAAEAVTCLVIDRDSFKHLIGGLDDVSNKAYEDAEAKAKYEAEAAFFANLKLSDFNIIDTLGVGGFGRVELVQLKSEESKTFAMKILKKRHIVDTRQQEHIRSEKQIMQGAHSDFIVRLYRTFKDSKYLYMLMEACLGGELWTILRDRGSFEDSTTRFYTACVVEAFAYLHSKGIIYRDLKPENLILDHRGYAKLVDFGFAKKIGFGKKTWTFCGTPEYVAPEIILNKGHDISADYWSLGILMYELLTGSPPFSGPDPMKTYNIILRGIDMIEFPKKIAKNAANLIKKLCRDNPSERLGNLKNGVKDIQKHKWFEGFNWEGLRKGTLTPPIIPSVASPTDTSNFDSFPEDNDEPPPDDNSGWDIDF
Chain of human kinome (Homo sapiens, UniProt Q15139) (Q15139 whole entry): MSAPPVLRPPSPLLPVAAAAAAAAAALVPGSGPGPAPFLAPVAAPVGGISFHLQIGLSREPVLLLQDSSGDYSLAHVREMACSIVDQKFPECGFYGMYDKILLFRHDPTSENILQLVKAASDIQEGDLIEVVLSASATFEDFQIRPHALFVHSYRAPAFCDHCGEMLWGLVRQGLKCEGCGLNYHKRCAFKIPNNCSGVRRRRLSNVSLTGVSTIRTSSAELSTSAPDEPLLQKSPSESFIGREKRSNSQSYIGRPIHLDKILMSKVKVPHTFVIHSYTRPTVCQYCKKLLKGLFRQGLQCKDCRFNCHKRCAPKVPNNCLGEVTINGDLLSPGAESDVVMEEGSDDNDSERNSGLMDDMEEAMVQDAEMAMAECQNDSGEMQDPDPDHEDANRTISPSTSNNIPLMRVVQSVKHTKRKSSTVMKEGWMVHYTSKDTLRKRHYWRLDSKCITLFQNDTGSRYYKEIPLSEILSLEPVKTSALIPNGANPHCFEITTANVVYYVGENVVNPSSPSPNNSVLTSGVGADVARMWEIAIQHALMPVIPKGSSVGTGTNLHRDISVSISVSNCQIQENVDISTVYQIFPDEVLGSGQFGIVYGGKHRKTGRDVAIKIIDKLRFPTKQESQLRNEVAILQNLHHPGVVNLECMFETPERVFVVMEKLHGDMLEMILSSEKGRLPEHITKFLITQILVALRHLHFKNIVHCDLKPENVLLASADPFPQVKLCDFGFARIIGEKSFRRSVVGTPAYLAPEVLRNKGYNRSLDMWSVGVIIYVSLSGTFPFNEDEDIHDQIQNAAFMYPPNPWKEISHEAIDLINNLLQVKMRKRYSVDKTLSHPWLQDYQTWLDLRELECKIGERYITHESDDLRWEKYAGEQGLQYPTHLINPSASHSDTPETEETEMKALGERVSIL
Chain of human kinome (Homo sapiens, UniProt Q00537) (Q00537 whole entry): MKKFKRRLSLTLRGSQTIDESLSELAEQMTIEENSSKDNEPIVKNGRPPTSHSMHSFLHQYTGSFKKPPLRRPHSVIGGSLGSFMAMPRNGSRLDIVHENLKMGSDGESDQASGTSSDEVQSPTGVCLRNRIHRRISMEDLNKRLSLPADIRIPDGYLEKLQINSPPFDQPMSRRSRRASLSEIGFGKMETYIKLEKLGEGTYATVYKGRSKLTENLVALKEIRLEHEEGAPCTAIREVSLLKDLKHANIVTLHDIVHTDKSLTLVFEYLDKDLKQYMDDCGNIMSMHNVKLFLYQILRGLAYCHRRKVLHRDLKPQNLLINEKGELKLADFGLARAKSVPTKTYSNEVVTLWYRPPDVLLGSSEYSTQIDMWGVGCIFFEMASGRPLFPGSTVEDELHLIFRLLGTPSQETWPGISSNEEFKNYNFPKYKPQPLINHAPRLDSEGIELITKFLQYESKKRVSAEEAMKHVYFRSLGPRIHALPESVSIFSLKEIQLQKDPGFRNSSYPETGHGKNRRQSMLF
Chain of human kinome (Homo sapiens, UniProt Q16816) (Q16816 whole entry): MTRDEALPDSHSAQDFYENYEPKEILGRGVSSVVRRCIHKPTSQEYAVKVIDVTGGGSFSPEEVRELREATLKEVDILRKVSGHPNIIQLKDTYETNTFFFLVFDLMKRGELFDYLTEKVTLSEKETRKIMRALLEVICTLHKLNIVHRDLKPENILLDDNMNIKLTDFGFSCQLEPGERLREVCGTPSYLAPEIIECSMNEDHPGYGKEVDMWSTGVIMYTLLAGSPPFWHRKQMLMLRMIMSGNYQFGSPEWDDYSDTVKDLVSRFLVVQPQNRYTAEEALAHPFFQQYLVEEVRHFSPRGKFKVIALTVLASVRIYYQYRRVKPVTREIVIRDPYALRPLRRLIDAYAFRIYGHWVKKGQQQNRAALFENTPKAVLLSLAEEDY
Chain of human kinome (Homo sapiens, UniProt P78362) (P78362 whole entry): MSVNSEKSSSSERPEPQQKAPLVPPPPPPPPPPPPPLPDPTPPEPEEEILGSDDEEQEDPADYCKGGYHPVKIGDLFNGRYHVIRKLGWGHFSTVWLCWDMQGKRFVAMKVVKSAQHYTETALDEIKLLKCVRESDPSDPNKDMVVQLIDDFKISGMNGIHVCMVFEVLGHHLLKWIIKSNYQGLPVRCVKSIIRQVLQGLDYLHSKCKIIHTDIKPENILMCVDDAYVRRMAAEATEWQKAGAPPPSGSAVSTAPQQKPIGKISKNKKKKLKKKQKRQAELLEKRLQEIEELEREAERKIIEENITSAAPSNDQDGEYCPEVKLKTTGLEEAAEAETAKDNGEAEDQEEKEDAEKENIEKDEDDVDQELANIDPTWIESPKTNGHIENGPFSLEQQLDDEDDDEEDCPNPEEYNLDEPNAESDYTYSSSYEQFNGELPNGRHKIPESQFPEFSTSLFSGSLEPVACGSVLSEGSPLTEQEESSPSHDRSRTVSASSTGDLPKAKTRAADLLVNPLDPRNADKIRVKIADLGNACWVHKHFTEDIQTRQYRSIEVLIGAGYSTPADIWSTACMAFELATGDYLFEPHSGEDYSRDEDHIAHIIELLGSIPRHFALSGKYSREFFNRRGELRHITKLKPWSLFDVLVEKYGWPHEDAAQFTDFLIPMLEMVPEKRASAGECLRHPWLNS

Structure (SMILES): COc1cc(F)ccc1-c1cc(Nc2cc(CS(C)(=N)=O)ccn2)ncc1F (centres unmarked) [VIP152]
- remaining binding at 0.1 µM (human kinome [1]; PIK3CA(H1047Y), 100 nM): 74%
- remaining binding at 1 µM (human kinome [1]; kinase PIK3CA(H1047Y) (Entrez PIK3CA), compound concentration 1000 nM): 85%
- remaining binding at 0.1 µM (human kinome [2]): 79%
- remaining binding at 0.1 µM (human kinome [3]; PCTK2 (Entrez CDK17), 100 nM): 100%
- remaining binding at 1 µM (human kinome [3]; kinase PCTK2 (Entrez CDK17), compound concentration 1000 nM): 54%
- remaining binding at 0.1 µM (human kinome [4]; PHKG1, 100 nM): 97%
- remaining binding at 1 µM (human kinome [4]; kinase PHKG1 (Entrez PHKG1), compound concentration 1000 nM): 96%
- remaining binding at 0.1 µM (human kinome [5]): 100%
- remaining binding at 0.1 µM (human kinome [6]; PKAC-beta (Entrez PRKACB), 100 nM): 100%
- remaining binding at 1 µM (human kinome [6]; kinase PKAC-beta (Entrez PRKACB), compound concentration 1000 nM): 94%
- remaining binding at 0.1 µM (human kinome [7]): 77%
- remaining binding at 0.1 µM (human kinome [8]): 92%
- remaining binding at 0.1 µM (human kinome [9]; PKAC-alpha (Entrez PRKACA), 100 nM): 97%
- remaining binding at 1 µM (human kinome [9]; kinase PKAC-alpha (Entrez PRKACA), compound concentration 1000 nM): 100%
- remaining binding at 0.1 µM (human kinome [10]): 100%
- remaining binding at 0.1 µM (human kinome [11]): 100%
- remaining binding at 0.1 µM (human kinome [12]; PRKG1, 100 nM): 100%
- remaining binding at 1 µM (human kinome [12]; kinase PRKG1 (Entrez PRKG1), compound concentration 1000 nM): 91%
- remaining binding at 0.1 µM (human kinome [13]; PCTK3 (Entrez CDK18), 100 nM): 100%
- remaining binding at 1 µM (human kinome [13]; kinase PCTK3 (Entrez CDK18), compound concentration 1000 nM): 84%
- remaining binding at 1 µM (human kinome [14]): 89%
- remaining binding at 0.1 µM (human kinome [15]; PRKG2, 100 nM): 100%
- remaining binding at 1 µM (human kinome [15]; kinase PRKG2 (Entrez PRKG2), compound concentration 1000 nM): 100%
- remaining binding at 1 µM (human kinome [16]): 96%
- remaining binding at 0.1 µM (human kinome [17]): 92%
- remaining binding at 0.1 µM (human kinome [18]): 100%
- remaining binding at 1 µM (human kinome [19]): 92%
- remaining binding at 0.1 µM (human kinome [20]): 94%
- remaining binding at 0.1 µM (human kinome [21]): 100%
- remaining binding at 1 µM (human kinome [22]; kinase RSK3(Kin.Dom.1-N-terminal) (Entrez RPS6KA2)): 98%
- remaining binding at 1 µM (human kinome [22]; kinase RSK3(Kin.Dom.2-C-terminal) (Entrez RPS6KA2)): 92%
- remaining binding at 1 µM (human kinome [23]): 73%
- remaining binding at 0.1 µM (human kinome [24]; PRKD1, 100 nM): 71%
- remaining binding at 1 µM (human kinome [24]; kinase PRKD1 (Entrez PRKD1), compound concentration 1000 nM): 100%
- remaining binding at 0.1 µM (human kinome [25]): 100%
- remaining binding at 0.1 µM (human kinome [26]): 91%
- remaining binding at 1 µM (human kinome [27]): 80%
- remaining binding at 0.1 µM (human kinome [28]; CDK4-cyclinD1): 85%
- remaining binding at 0.1 µM (human kinome [28]; CDK4-cyclinD3): 92%
- remaining binding at 0.1 µM (human kinome [28]; CDK4): 100%
- remaining binding at 0.1 µM (human kinome [29]): 80%
